Source: patent US8784818B2, “Anti-VEGFR-3 antibody compositions” (ImClone LLC, priority 2010, dated 2014)

Columns and labels:
[1] = tested on: NCI-H292 tumor; assay: NCI-H292 lung cancer xenograft model; type: in vivo, mice; conditions: versus control group; Antibody 2 40 mg/kg 3 times per week i.p.; Docetaxel 12 mg/kg q7d; through Day 26
Protocol: In order to test for activity of anti-VEGFR-3 antibodies in lung cancer, the NCI-H292 xenograft model is used. Nu/nu mice (female, 7-8 weeks of age) are injected subcutaneously with 2×10^6 NCI-H292 cells/mouse. When tumors reach approximately 300 mm^3, mice are randomized by tumor size into the following treatment groups (n=15): 1) USP saline at 10 μl/g, 3 times per week, i.p., starting on day 2. 2) Antibody 2 at 40 mg/kg, 3 times per week, i.p., starting day 2. 3) Docetaxel at 12 mg/kg, q7d, starting day 1. 4) Docetaxel at 12 mg/kg, q7d, starting day 1 plus Antibody 2 at 40 mg/kg, 3 times per week, starting day 2.
Tumor volumes are measured approximately twice a week and body weights are recorded at least twice a week for the duration of the study. At sacrifice, mice are euthanized by CO2 asphyxiation. The T/C % is calculated for each treatment group as the ratio of the relative tumor volume in the experimental groups versus the control group. Tumor growth and body weights are compared to the control group by repeated measures ANOVA through Day 26.

[2] = tested on: CAL27 tumors; assay: CAL27 squamous cell carcinoma xenograft model; type: in vivo, mice; conditions: versus USP saline; Antibody 2 40 mg/kg 3 days per week; cisplatin 7 mg/kg q7d; through Day 61
Protocol: In order to test for activity of anti-VEGFR-3 antibodies in head and neck cancer, the CAL27 xenograft model is used. CAL27 cell suspension, at 1×10^7 cells/mouse, is injected s.c. into the left flank of 60 female athymic mice. When tumors reach ˜180 mm^3, eight days after cell implantation, the mice are randomized and divided into four treatment groups (n=12): 1.) USP saline control, 0.5 ml i.p., 3 days per week 2.) Antibody 2 at 40 mg/kg, 3 days per week 3.) cisplatin at 7 mg/kg, q7d 4.) Antibody 2 at 40 mg/kg, 3 days per week+cisplatin at 7 mg/kg, q7d.
Tumor measurements are recorded twice weekly; RM ANOVA through Day 61 is used to compare tumor growth among the treatment groups. Chi Squared tests are used to test for statistical significance in the number of tumor regressions among the treatment groups.

| SMILES | T/C % [1] [%] | T/C % [2] [%] |
| --- | --- | --- |
| CC(=O)O[C@@]12CO[C@@H]1C[C@H](O)[C@@]1(C)C(=O)[C@H](O)C3=C(C)[C@@H](OC(=O)[C@H](O)[C@@H](NC(=O)OC(C)(C)C)c4ccccc4)C[C@@](O)([C@@H](OC(=O)c4ccccc4)[C@H]21)C3(C)C [Docetaxel] | 49 |  |
| N.N.[Cl][Pt][Cl] [cisplatin] |  | 39 |
